This passage reports IC50 results from BindingDB's records for patent US12419873 (Zhuhai United Laboratories Co., 2025).

The target of assay [1] is Non-receptor tyrosine-protein kinase TYK2 (Homo sapiens, UniProt P29597). Put plainly: TYK2 (h) Enzyme Reaction.
Experimental: (§1) Mg/ATP mixture was added to start the reaction. After incubation at room temperature for 40 minutes, 0.5% phosphoric acid was added to stop the reaction.
Assay [2] addresses Tyrosine-protein kinase JAK1 (Homo sapiens, UniProt P23458). Put plainly: JAK1 (h) Enzyme Reaction.
Experimental: as §1
The target in assay [3] is Tyrosine-protein kinase JAK2 (Homo sapiens, UniProt O60674). In words: JAK2 (h) Enzyme Reaction.
Tyrosine-protein kinase JAK2, sequence (O60674 whole entry): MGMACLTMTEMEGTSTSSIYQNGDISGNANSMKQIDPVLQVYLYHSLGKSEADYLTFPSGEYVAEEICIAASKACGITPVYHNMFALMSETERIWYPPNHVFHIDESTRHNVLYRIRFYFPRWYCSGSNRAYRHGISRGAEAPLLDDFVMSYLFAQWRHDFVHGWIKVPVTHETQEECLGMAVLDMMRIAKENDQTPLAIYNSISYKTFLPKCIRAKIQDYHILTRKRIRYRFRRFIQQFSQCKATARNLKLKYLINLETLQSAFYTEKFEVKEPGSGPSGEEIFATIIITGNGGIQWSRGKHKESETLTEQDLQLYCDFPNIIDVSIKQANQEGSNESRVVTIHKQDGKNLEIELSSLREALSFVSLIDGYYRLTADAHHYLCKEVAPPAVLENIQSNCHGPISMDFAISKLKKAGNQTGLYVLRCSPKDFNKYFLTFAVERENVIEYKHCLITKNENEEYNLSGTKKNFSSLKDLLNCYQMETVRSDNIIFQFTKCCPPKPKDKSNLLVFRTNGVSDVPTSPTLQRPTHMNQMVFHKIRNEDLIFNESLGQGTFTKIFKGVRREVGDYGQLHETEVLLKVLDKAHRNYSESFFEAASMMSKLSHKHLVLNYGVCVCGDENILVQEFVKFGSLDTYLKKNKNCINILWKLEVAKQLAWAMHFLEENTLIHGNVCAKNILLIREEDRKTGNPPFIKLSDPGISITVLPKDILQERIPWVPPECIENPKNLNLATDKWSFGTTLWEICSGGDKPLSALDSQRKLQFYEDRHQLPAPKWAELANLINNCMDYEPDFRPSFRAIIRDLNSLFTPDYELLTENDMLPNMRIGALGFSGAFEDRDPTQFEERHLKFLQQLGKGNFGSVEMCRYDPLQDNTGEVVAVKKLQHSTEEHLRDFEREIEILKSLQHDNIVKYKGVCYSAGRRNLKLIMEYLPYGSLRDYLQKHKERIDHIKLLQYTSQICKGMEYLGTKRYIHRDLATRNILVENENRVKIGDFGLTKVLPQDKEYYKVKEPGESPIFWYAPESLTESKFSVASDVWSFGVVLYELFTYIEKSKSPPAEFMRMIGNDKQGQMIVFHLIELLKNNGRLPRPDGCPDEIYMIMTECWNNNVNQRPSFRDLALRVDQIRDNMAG
Experimental: as §1
For assay [4], the target named is T1, Tyrosine-protein kinase JAK3 (Homo sapiens, UniProt P52333).
T1 sequence (P52333 whole entry): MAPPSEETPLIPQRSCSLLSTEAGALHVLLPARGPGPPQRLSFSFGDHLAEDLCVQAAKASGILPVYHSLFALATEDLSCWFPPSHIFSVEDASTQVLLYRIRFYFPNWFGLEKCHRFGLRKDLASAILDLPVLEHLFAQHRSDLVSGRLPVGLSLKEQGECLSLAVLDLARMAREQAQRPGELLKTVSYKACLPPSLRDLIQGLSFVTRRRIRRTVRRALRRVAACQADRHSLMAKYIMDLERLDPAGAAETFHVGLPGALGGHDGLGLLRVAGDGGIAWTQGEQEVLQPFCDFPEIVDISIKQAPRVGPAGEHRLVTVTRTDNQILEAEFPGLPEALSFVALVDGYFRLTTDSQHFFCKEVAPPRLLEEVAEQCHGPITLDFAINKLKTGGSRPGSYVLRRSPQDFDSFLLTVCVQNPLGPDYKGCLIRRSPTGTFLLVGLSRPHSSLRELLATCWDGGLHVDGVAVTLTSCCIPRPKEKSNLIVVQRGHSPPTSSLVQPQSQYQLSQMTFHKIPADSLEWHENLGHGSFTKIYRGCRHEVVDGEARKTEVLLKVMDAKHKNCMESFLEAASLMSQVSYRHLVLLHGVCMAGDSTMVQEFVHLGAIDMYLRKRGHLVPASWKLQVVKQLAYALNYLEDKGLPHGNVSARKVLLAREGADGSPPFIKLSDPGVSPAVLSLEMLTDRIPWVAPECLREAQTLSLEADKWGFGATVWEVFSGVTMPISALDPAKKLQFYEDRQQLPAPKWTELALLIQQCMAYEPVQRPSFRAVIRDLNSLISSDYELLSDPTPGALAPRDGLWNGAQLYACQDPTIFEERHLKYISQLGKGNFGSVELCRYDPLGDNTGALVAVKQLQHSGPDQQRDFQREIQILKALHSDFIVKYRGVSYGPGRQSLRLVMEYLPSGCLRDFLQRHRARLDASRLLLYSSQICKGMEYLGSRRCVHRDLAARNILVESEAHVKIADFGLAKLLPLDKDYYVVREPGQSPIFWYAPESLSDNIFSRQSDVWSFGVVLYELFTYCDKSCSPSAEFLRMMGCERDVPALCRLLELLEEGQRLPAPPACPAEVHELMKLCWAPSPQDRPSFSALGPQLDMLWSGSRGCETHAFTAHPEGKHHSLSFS
In words: JAK3 (h) Enzyme Reaction.
Experimental: as §1

Tyrosine-protein kinase JAK1, sequence (P23458 whole entry): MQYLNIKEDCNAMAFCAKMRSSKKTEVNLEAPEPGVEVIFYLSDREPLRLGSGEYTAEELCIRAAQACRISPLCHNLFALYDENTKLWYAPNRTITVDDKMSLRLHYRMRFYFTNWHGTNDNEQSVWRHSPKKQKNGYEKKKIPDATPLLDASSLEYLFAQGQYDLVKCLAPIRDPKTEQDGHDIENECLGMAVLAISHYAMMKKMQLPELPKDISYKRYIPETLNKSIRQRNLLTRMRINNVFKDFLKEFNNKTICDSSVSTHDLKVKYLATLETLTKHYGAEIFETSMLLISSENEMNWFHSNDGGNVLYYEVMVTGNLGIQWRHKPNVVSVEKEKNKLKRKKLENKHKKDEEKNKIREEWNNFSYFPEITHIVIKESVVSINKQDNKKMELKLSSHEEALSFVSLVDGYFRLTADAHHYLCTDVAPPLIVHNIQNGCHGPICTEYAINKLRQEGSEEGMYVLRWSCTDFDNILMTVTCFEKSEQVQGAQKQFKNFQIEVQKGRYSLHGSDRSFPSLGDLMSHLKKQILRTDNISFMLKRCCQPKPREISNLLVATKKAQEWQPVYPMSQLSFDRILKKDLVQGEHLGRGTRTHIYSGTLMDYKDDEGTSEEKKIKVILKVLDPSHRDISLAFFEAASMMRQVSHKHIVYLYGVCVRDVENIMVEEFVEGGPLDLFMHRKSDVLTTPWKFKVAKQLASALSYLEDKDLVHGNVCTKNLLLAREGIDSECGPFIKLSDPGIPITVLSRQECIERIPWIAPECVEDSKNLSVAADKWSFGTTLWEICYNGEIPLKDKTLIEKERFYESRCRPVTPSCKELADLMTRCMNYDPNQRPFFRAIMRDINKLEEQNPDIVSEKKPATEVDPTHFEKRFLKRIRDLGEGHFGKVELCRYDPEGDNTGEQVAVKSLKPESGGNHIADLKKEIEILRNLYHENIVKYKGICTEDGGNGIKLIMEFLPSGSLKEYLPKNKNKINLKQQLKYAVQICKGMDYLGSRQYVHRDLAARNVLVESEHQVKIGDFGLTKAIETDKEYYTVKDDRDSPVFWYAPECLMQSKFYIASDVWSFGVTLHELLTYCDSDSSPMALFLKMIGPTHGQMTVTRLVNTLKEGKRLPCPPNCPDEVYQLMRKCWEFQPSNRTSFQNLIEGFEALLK
Non-receptor tyrosine-protein kinase TYK2, sequence (P29597 whole entry): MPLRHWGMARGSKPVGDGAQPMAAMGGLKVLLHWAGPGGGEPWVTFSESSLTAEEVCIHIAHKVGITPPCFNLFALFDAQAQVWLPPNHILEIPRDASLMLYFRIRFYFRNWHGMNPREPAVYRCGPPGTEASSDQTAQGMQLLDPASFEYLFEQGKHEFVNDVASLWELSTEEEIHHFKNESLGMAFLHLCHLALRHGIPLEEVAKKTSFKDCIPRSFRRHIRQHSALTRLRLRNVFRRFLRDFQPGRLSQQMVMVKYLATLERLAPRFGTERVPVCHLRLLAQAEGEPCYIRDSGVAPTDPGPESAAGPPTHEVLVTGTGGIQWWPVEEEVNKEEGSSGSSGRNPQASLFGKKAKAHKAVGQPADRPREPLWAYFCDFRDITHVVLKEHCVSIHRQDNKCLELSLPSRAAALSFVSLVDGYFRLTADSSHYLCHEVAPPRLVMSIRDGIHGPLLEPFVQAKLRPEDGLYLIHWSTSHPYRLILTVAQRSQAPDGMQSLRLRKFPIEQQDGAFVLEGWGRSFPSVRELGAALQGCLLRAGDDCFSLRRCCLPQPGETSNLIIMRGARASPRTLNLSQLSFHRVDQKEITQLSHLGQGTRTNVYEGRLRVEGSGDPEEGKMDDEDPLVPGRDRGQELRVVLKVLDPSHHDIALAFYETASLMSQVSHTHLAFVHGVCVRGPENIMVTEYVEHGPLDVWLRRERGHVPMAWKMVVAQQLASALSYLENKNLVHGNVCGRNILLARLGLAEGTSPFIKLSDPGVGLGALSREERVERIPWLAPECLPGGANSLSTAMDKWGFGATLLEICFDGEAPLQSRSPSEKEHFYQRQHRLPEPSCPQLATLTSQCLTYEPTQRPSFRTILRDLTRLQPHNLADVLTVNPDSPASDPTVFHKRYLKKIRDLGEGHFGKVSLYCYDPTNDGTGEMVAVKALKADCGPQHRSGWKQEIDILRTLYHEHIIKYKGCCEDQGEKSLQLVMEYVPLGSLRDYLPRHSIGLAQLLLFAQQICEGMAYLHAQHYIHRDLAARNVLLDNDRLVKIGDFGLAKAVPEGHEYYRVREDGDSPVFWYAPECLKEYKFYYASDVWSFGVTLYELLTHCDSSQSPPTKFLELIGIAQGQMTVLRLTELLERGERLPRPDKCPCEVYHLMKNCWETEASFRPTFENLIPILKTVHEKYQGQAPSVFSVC

The IC50 is the concentration that inhibits the measured activity by half. Regarding `N#CCC(=O)N1CC2(CCC(c3cccc4nc(NC(=O)[C@@H]5CC5(F)F)nn34)CC2)C1` [US12419873, Compound 9-5], the IC50 in assay [1] was 175 nM; in assay [2] it was 224 nM; in assay [3] it was 624 nM; in assay [4] it was above 10000 nM.
